Source: ChEMBL document CHEMBL1152270, “Cobalt-alkyne complexes with imidazoline ligands as estrogenic carriers: synthesis and pharmacological investigations” (J Med Chem, 2008)
The source made the active and inactive calls. The rule behind the calls is not given here.

Tests used:
MDA-MB-231 = assay: Antiproliferative activity against human MDA-MB-231 cells; format: functional, cell-based
MCF7 = assay: Antiproliferative activity against human MCF7 cells; format: functional, cell-based
Estrogen receptor = molecular target: T1, Estrogen receptor (Homo sapiens, UniProt P03372); assay: Transactivation of ERalpha in human MCF7-2a cells assessed as luciferase reporter gene expression; format: cell-based
T1 sequence (P03372 whole entry): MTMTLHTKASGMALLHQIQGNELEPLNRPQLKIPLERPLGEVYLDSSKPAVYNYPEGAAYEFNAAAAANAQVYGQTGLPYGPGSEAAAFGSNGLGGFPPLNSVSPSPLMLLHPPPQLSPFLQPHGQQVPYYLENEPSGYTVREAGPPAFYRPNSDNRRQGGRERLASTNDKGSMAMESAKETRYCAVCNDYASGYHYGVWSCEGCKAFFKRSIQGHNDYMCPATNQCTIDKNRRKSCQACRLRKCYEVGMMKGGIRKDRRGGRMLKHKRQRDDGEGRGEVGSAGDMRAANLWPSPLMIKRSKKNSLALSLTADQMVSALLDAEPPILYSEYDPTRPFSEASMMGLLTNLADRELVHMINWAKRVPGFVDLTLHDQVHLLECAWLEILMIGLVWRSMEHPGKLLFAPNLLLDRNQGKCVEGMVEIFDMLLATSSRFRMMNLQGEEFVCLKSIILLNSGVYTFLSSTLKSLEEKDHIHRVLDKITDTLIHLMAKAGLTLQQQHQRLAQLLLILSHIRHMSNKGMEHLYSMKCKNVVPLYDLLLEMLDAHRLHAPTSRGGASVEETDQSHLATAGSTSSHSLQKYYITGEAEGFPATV

[1] = molecular target: T2, Estrogen receptor (Homo sapiens) (UniProt P03372); assay: Transactivation of ERalpha in human MCF7-2a cells assessed as luciferase reporter gene expression at 1 uM relative to estradiol; format: cell-based
T2 sequence (whole entry): T1 sequence (P03372 whole entry)

Activity [1] [%]	SMILES	Activity (MDA-MB-231)	Activity (MCF7)	EC50 (Estrogen receptor) [nM]
–	C#CCN1C=NC(c2ccc(O)cc2Cl)C1c1ccc(O)cc1Cl (stereo unspecified)	inactive	inactive	10
13	C#CCN1C=NC(c2ccc(OC)cc2Cl)C1c1ccc(OC)cc1Cl (stereo unspecified)	inactive	inactive	–
